Outcome and Potency data for 76 compounds are collected here from PubChem BioAssay AID1208 (EPA DSSTox, 2008).

The data set has as its system rat chronic carcinogenicity bioassay, TD50. Briefly: DSSTox (CPDBAS) Carcinogenic Potency Database Summary Rat Bioassay Results. The following applies: for outcome: TD50_Rat_Note: no positive results; for Potency: hits give low values. A digest of the protocol:
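Chronic long-term rat cancer bioassays from literature and NCI/NTP, taking the most positive result per sex. TD50 in mmol converted to a 1–100 Activity Score from log10(1/TD50). Mixtures lacking TD50 scored 50.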

The mark [1] stands for this setting: TargetSites_Rat_Female: no positive results.
Where [2] appears, read: TD50_Rat_Note: TD50 is harmonic mean of more than one positive test, TargetSites_Rat_Female: liver.
Where [3] appears, read: TargetSites_Rat_BothSexes: no positive results.
Where [4] appears, read: TargetSites_Rat_Female: esophagus, oral cavity, stomach.
[5] abbreviates: TD50_Rat_Note: TD50 is harmonic mean of more than one positive test, greater than ten-fold variation among TD50 values for positive res, TargetSites_Rat_Female: liver.

Active and inactive are the calls of the source.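 The calls were made as follows: active = at least one rat sex group has a carcinogenic potency value and tumor site recorded; inconclusive = only rat studies were judged inadequate by the national testing program; inactive = no potency or tumor site, with negative rat experiments.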

Regarding `Nc1ccc([N+](=O)[O-])cc1N`, the outcome under setting [1] was “inactive; no positive results”.

Turning to `S=[Se]`, the Potency under setting [2] was 8.01 mg/kg/day.

In the case of `COC(=O)C(c1ccccc1)C1CCCCN1` (stereo unspecified), the outcome under setting [1] was “inactive; no positive results”.

As for `Cc1ccccc1[N+](=O)[O-]`, the Potency (TD50_Rat_Note: TD50 is harmonic mean of more than one positive test, greater than ten-fold variation among TD50 values for positive res, TargetSites_Rat_Female: liver, mammary gland, subcutaneous tissue) was 4.66 mg/kg/day.

Take `C/C(=C(\CCOC(=O)c1ccccc1)SC(=O)c1ccccc1)N(C=O)Cc1cnc(C)nc1N`: the outcome under setting [1] is “inactive; no positive results”.

`O=C1c2ccccc2C(=O)c2c(O)c(O)cc(O)c21`: the Potency is 678 mg/kg/day.

Take `COP(=O)(OC)C(O)C(Cl)(Cl)Cl` (stereo unspecified): the outcome under setting [3] was inactive.

Regarding `CCC[C@@H]1O[C@@H]2C[C@H]3[C@@H]4CCC5=CC(=O)C=C[C@]5(C)[C@H]4[C@@H](O)C[C@]3(C)[C@]2(C(=O)CO)O1`, the Potency was 0.291 mg/kg/day.

Turning to `OCC1CO1` (stereo unspecified), the Potency (TD50_Rat_Note: TD50 is harmonic mean of more than one positive test, TargetSites_Rat_Female: clitoral gland, hematopoietic system, mammary gland, nervous system, oral cavity, stomach, thyroid gland) was 4.28 mg/kg/day.

For the compound `O=C1C=C(N2CC2)C(=O)C(N2CC2)=C1N1CC1`, the Potency (TD50_Rat_Note: positive test results only by intraperitoneal or intravenous injection) is 0.00504 mg/kg/day.

For `CC(=O)Oc1ccccc1C(=O)O`, under setting [3], the outcome is “inactive; no positive results”.

As to `CN(C)/N=N/c1nc[nH]c1C(N)=O`, the Potency (TargetSites_Rat_Female: hematopoietic system, mammary gland, uterus) was 0.71 mg/kg/day.

With `Nc1ccc(NCCO)c([N+](=O)[O-])c1`, the outcome under setting [1] is “inactive; no positive results”.

Regarding `CCCCCCCCCCN(C)N=O`, the Potency was 1.26 mg/kg/day.

Turning to `CCC1(c2ccccc2)C(=O)NCNC1=O`, the outcome under setting [1] is “inactive; no positive results”.

For the compound `Cc1c(N)nc(C)c2c1[nH]c1ccccc12`, the Potency under setting [2] was 0.575 mg/kg/day.

In the case of `NC(=O)N/N=C/c1ccco1`, the outcome under setting [1] was inactive.

Regarding `Nc1nnc(-c2ccc([N+](=O)[O-])o2)s1`, the Potency (TargetSites_Rat_Female: kidney, lung, mammary gland, stomach) is 0.662 mg/kg/day.

With `C[C@H](CCc1ccccc1)NC[C@H](O)c1ccc(O)c(C(N)=O)c1`, the outcome under setting [1] was “inactive; no positive results”.

For the compound `C=Cc1ccccc1`, for the setting “TargetSites_Rat_Female: mammary gland”, the Potency is 23.3 mg/kg/day.

For the compound `CCCCC1(COC(=O)CCC(=O)O)C(=O)N(c2ccccc2)N(c2ccccc2)C1=O`, under setting [1], the outcome was “inactive; no positive results”.

In the case of `OC(Cn1cncn1)(Cn1cncn1)c1ccc(F)cc1F`, the Potency under setting [1] is 80.7 mg/kg/day.

For the compound `CCOc1ccc(NC(N)=O)cc1`, the Potency (TargetSites_Rat_BothSexes: liver) is 537 mg/kg/day.

In the case of `Oc1cccc2cccnc12`, the outcome under setting [1] was “inactive; no positive results”.

As to `CN(C)N=O`, where the note is “TD50_Rat_Note: TD50 is harmonic mean of more than one positive test, greater than ten-fold variation among TD50 values for positive res, TargetSites_Rat_Female: liver, vascular system”, the Potency is 0.0959 mg/kg/day.

As to `CNC(=O)Oc1cccc2ccccc12`, for the setting “TargetSites_Rat_BothSexes: all tumor bearing animals”, the Potency was 14.1 mg/kg/day.

With `Cc1c(-c2cnccn2)ssc1=S`, the outcome under setting [1] is “inactive; no positive results”.

Consider `CC(O)CN(CC(O)CO)N=O` (stereo unspecified), for which the Potency under setting [4] was 0.0535 mg/kg/day.

In the case of `CC(=O)CN(CC(O)CO)N=O` (stereo unspecified), the Potency under setting [4] is 0.0352 mg/kg/day.

On to `CCN(CC)C(=O)Nc1ccc(OCC(O)CNC(C)(C)C)c(C(C)=O)c1` (stereo unspecified), for which the outcome under setting [1] is “inactive; no positive results”.

For the compound `[O]N=O`, the outcome was “inactive; no positive results”.

As to `CCOc1ccc(NC(C)=O)cc1[N+](=O)[O-]`, the outcome under setting [1] was “inactive; no positive results”.

`O=c1[nH]cc(F)c(=O)[nH]1`: the outcome under setting [1] is “inactive; no positive results”.

As to `CC1=C2C(=CO[C@@H](C)[C@@H]2C)C(=O)C(C(=O)O)=C1O`, where the note is “TD50_Rat_Note: TD50 value is overestimated as upper 99% confidence limit from study with 100% tumor incidence but no lifetable, TD50 is”, the Potency is 7.48 mg/kg/day.

As to `CC(O)COC(C)(C)C` (stereo unspecified), under setting [1], the outcome was “inactive; no positive results”.

`CC[C@H](OC(C)=O)C(C[C@H](C)N(C)C)(c1ccccc1)c1ccccc1`: the Potency under setting [2] is 68 mg/kg/day.

As to `Nc1ccc2c(c1)oc1ccccc12`, the Potency was 2.48 mg/kg/day.

With `CC(C)=NO`, under setting [1], the Potency was 12.1 mg/kg/day.

Consider `NC(=O)N(CCCO)N=O`, for which, under “TD50_Rat_Note: TD50 is harmonic mean of more than one positive test, TargetSites_Rat_Female: stomach”, the Potency is 0.978 mg/kg/day.

Turning to `Cc1ncc[nH]1`, the Potency (TD50_Rat_Note: TD50 is harmonic mean of more than one positive test, TargetSites_Rat_Female: thyroid gland) is 868 mg/kg/day.

As to `C/C=C(/C)C(=O)O[C@H]1CCN2CC=C(COC(=O)[C@](O)([C@H](C)OC)C(C)(C)O)[C@H]12`, the Potency (TD50_Rat_Note: TD50 is harmonic mean of more than one positive test, TargetSites_Rat_Female: hematopoietic system, liver, vascular system) was 0.389 mg/kg/day.

With `Cc1cccc2cccnc12`, under setting [1], the outcome was “inactive; no positive results”.

Regarding `O=[N+]([O-])c1ccc(-c2nc(NCCO)c3ccccc3n2)s1`, the Potency (TargetSites_Rat_Female: all tumor bearing animals) was 1.87 mg/kg/day.

As for `CNCCc1ccc(OC(=O)C(C)C)c(OC(=O)C(C)C)c1`, the outcome under setting [1] is “inactive; no positive results”.

With `Cc1cc(C)c(N=Nc2c(O)c(S(=O)(=O)O)cc3cc(S(=O)(=O)O)ccc23)cc1C`, the Potency under setting [5] is 521 mg/kg/day.

As to `O=[N+]([O-])c1ccc2c3c(cccc13)CC2`, the Potency (TD50_Rat_Note: TD50 is harmonic mean of more than one positive test, TargetSites_Rat_Female: clitoral gland, ear Zymbals gland, lung, mammary gland) was 8.67 mg/kg/day.

For `COc1cc2c(c3oc(=O)c4c(c13)CCC4=O)C1C=COC1O2` (stereo unspecified), the Potency (TD50_Rat_Note: TD50 is harmonic mean of more than one positive test, harmonic mean of TD50 includes a value for upper 99% confidence li, TargetSites_Rat_Female: large intestine, liver) is 0.0032 mg/kg/day.

On to `CC(C)(Oc1ccc(C2CCCc3ccccc32)cc1)C(=O)O` (stereo unspecified), for which the Potency under setting [5] is 11 mg/kg/day.

On to `CC(=O)N(O)c1ccc2c(c1)Cc1ccccc1-2`, for which, under setting [2], the Potency is 0.988 mg/kg/day.

Regarding `CCN(Cc1cccc(S(=O)(=O)O)c1)c1ccc(C(=C2C=CC(=[N+](CC)Cc3cccc(S(=O)(=O)O)c3)C=C2)c2ccc(O)cc2S(=O)(=O)[O-])cc1`, the outcome under setting [1] is “inactive; no positive results”.

On to `CC(=O)CN(CC(C)=O)N=O`, for which, for the setting “TD50_Rat_Note: TD50 is harmonic mean of more than one positive test, TargetSites_Rat_Female: liver, lung, vascular system”, the Potency is 0.491 mg/kg/day.

Take `Nc1nc(=S)c2ncn([C@H]3C[C@H](O)[C@@H](CO)O3)c2[nH]1`: the Potency (TD50_Rat_Note: positive test results only by intraperitoneal or intravenous injection, TargetSites_Rat_Female: ear Zymbals gland) is 2.1 mg/kg/day.

As to `CCNC(=O)N(CCO)N=O`, the Potency (TD50_Rat_Note: TD50 is harmonic mean of more than one positive test, TargetSites_Rat_Female: mammary gland) is 0.562 mg/kg/day.

Consider `Nc1ccc(Cl)cc1N`, for which, for the setting “TD50_Rat_Note: TD50 is harmonic mean of more than one positive test, TargetSites_Rat_Female: stomach, urinary bladder”, the Potency is 214 mg/kg/day.

As for `CCN(Cc1cccc(S(=O)(=O)O)c1)c1ccc(C(=C2C=CC(=[N+](CC)Cc3cccc(S(=O)(=O)O)c3)C=C2)c2ccccc2S(=O)(=O)[O-])cc1`, the result under setting [3] was inactive.

As for `C=CCN(CC(O)CO)N=O` (stereo unspecified), the Potency (TargetSites_Rat_Female: esophagus, nasal cavity) was 0.825 mg/kg/day.

Consider `O=C1OC(C(O)CO)C(O)=C1O` (stereo unspecified), for which the outcome is “inactive; no positive results”.

Consider `C=C(F)F`, for which the outcome under setting [1] is “inactive; no positive results”.

`[O]=[Mo](=[O])=[O]`: the outcome under setting [1] is “inactive; no positive results”.

As to `O=P(OC(CCl)CCl)(OC(CCl)CCl)OC(CCl)CCl`, under “TD50_Rat_Note: TD50 is harmonic mean of more than one positive test, TargetSites_Rat_Female: kidney, liver”, the Potency is 46.4 mg/kg/day.

As for `CCCCC(CC)COC(=O)CCCCC(=O)OCC(CC)CCCC` (stereo unspecified), the outcome under setting [1] was “inactive; no positive results”.

Regarding `CC(C)C[C@H]1C(=O)N2CCC[C@H]2[C@]2(O)O[C@](NC(=O)[C@@H]3C=C4c5cccc6[nH]c(Br)c(c56)C[C@H]4N(C)C3)(C(C)C)C(=O)N12`, the Potency (TargetSites_Rat_Female: uterus) was 33.7 mg/kg/day.

As for `NC(=O)Cc1c([O-])on[n+]1Cc1ccccc1`, the Potency is 4.24 mg/kg/day.

As for `CCCC(CCC)C(=O)O`, the Potency (TargetSites_Rat_Female: uterus) is 1300 mg/kg/day.

`Nc1cc(Cl)c(N)c(Cl)c1`: the outcome under setting [1] was “inactive; no positive results”.

For the compound `CCCl`, under setting [1], the outcome was “inactive; no positive results”.

For the compound `CS(=O)(=O)OCCCCOS(C)(=O)=O`, the outcome was “inactive; no positive results”.

`CO[C@H]1/C=C/O[C@@]2(C)Oc3c(C)c(O)c4c(O)c(c(/C=N/N5CCN(C)CC5)c(O)c4c3C2=O)NC(=O)/C(C)=C\C=C\[C@H](C)[C@H](O)[C@@H](C)[C@@H](O)[C@@H](C)[C@H](OC(C)=O)[C@@H]1C`: the outcome under setting [1] is “inactive; no positive results”.

Turning to `O=[O+][O-]`, under setting [1], the outcome was “inactive; no positive results”.

For `COc1cc(OC)c2c3c(c(=O)oc2c1)CCC3`, the outcome was “inactive; no positive results”.

As to `COc1ccc2nc(S(=O)Cc3ncc(C)c(OC)c3C)[nH]c2c1` (stereo unspecified), the Potency (TD50_Rat_Note: TD50 is harmonic mean of more than one positive test, greater than ten-fold variation among TD50 values for positive res, TargetSites_Rat_Female: stomach) is 119 mg/kg/day.

As to `CC(C)(C)c1cc(C(C)(C)C)c(O)c(C(C)(C)C)c1`, under setting [1], the outcome is “inactive; no positive results”.

As for `O=S(=O)(O)O`, the Potency (TD50_Rat_Note: TD50 is harmonic mean of more than one positive test, TargetSites_Rat_Female: lung) is 40.8 mg/kg/day.

Take `O=C(O)c1nn(Cc2ccc(Cl)cc2Cl)c2ccccc12`: under setting [1], the outcome was “inactive; no positive results”.

In the case of `NNc1nc(-c2ccc([N+](=O)[O-])o2)cs1`, where the note is “TD50_Rat_Note: TD50 is harmonic mean of more than one positive test, TargetSites_Rat_Female: kidney, mammary gland”, the Potency is 3.19 mg/kg/day.

As to `CCCCCCCCCCCN(C)N=O`, the Potency is 2.37 mg/kg/day.
